Columns and labels:
Assay type in all cases: in vivo
Abutilon theophrasti = experiment: Preliminary screening test (pot-culture method), post-emergence stem and leaf spray; details: 150 g.a.i/ha; stems and leaves sprayed at 4-5 leaves stage; investigated after 30 days; visual rating
Excerpt: (§1) Preliminary screening test (pot-culture method): the targets of the test are Echinochloa crusgalli, Digitaria sanguinalis, Setaria viridis, Amaranthus tricolor, Chenopodium album, Abutilontheophrasti. Spraying the stems and leaves after seedlings: taking a paper cup with an inner diameter of 7 cm and fill it with composite soil (vegetable garden soil: seedling substrate, 1: 2, v/v) to 3/4 of the cup. Sowing weeds directly, cover it with 0.2 cm soil and wait until it grows to 4-5 leaves stage for later use. The compounds of the invention and the aforementioned comparative compound D1 are applied in an automatic spray tower at a dose of 150 g.a.i/ha (g/ha). After the liquid on the crop leaves is dried in the air, the crops are transferred to the greenhouse for cultivation (humidity 70%), and the results were investigated after 30 days.
(§2) The growth inhibition rate evaluation method is a visual method. The growth inhibition rate is rated specifically according to the conditions shown in table 2, and the test results are shown in Table 3.

Amaranthus tricolor = experiment: as above; details: 150 g.a.i/ha; stems and leaves sprayed at 4-5 leaves stage; investigated after 30 days; visual rating
Excerpt: as §1, §2

Chenopodium album = experiment: as above; details: 150 g.a.i/ha; stems and leaves sprayed at 4-5 leaves stage; investigated after 30 days; visual rating
Excerpt: as §1, §2

Digitaria sanguinalis [1] = experiment: as above; details: 150 g.a.i/ha; stems and leaves sprayed at 4-5 leaves stage; investigated after 30 days; visual rating
Excerpt: as §1, §2

Echinochloa crusgalli [2] = experiment: as above; details: 150 g.a.i/ha; stems and leaves sprayed at 4-5 leaves stage; investigated after 30 days; visual rating
Excerpt: as §1, §2

Setaria viridis [3] = experiment: as above; details: 150 g.a.i/ha; stems and leaves sprayed at 4-5 leaves stage; investigated after 30 days; visual rating
Excerpt: as §1, §2

Aegilops squarrosa = experiment: Re-screen assay at low dose (pot-culture method); details: post-emergence spray, 30 days
Excerpt: as §1, §2
(§3) The same method as in test example 1 is used to conduct re-screen assays at the low dose for representative compounds, and the results are shown in Table 4.

Alopecurus aequalis = experiment: Re-screen assay at low dose (pot-culture method); details: post-emergence spray, 30 days
Excerpt: as §1, §2, §3

Alopecurus japonicus = experiment: Re-screen assay at low dose (pot-culture method); details: post-emergence spray, 30 days
Excerpt: as §1, §2, §3

Avena fatua = experiment: Re-screen assay at low dose (pot-culture method); details: post-emergence spray, 30 days
Excerpt: as §1, §2, §3

Bromus japonicus = experiment: Re-screen assay at low dose (pot-culture method); details: post-emergence spray, 30 days
Excerpt: as §1, §2, §3

Digitaria sanguinalis [4] = experiment: Re-screen assay at low dose (pot-culture method); details: post-emergence spray, 30 days
Excerpt: as §1, §2, §3

Echinochloa crusgalli [5] = experiment: Re-screen assay at low dose (pot-culture method); details: post-emergence spray, 30 days
Excerpt: as §1, §2, §3

Setaria viridis [6] = experiment: Re-screen assay at low dose (pot-culture method); details: post-emergence spray, 30 days
Excerpt: as §1, §2, §3

[7] = test system: Aegilops squarrosa, Avenafatua, Bromus japonicus, Alopecurus aequalis, and Alopecurus japonicus; experiment: Re-screening with reduced concentration, summary in text for gramineous weeds of wheat fields; details: at three application concentrations (120, 60, 30 g.a.i/ha); result in words

## Cc1cccc(C)c1-n1c(=O)c2cc(C(=O)C3=C(O)CCCC3=O)ccc2n(C)c1=O [Compound D1]
Abutilon theophrasti
  Inhibition Level Abutilon theophrasti: 4 (weeds or crops die.)
Amaranthus tricolor
  Inhibition Level Amaranthus tricolor: 4 (weeds or crops die.)
Chenopodium album
  Inhibition Level Chenopodium album: 5 (weeds or crops die completely.)
Digitaria sanguinalis [1]
  Inhibition Level Digitaria sanguinalis: 4 (weeds or crops die.)
Echinochloa crusgalli [2]
  Inhibition Level Echinochloa crusgalli: 4 (weeds or crops die.)
Setaria viridis [3]
  Inhibition Level Setaria viridis: 4 (weeds or crops die.)
Aegilops squarrosa; 30 g.a.i/ha
  Inhibition Level Aegilops squarrosa: 0 (has no influence on the growth of weeds or crops and has no drug effect symptom.)
Aegilops squarrosa; 60 g.a.i/ha
  Inhibition Level Aegilops squarrosa: 1 (slightly affects the growth of weeds or crops, and has no obvious drug effect symptom.)
Aegilops squarrosa; 120 g.a.i/ha
  Inhibition Level Aegilops squarrosa: 2 (has certain effect on weed or crop growth, and has obvious drug effect.)
Alopecurus aequalis; 30 g.a.i/ha
  Inhibition Level Alopecurus aequalis: 0 (has no influence on the growth of weeds or crops and has no drug effect symptom.)
Alopecurus aequalis; 60 g.a.i/ha
  Inhibition Level Alopecurus aequalis: 0 (has no influence on the growth of weeds or crops and has no drug effect symptom.)
Alopecurus aequalis; 120 g.a.i/ha
  Inhibition Level Alopecurus aequalis: 1 (slightly affects the growth of weeds or crops, and has no obvious drug effect symptom.)
Alopecurus japonicus; 30 g.a.i/ha
  Inhibition Level Alopecurus japonicus: 0 (has no influence on the growth of weeds or crops and has no drug effect symptom.)
Alopecurus japonicus; 60 g.a.i/ha
  Inhibition Level Alopecurus japonicus: 0 (has no influence on the growth of weeds or crops and has no drug effect symptom.)
Alopecurus japonicus; 120 g.a.i/ha
  Inhibition Level Alopecurus japonicus: 0 (has no influence on the growth of weeds or crops and has no drug effect symptom.)
Avena fatua; 30 g.a.i/ha
  Inhibition Level Avena fatua: 0 (has no influence on the growth of weeds or crops and has no drug effect symptom.)
Avena fatua; 60 g.a.i/ha
  Inhibition Level Avena fatua: 0 (has no influence on the growth of weeds or crops and has no drug effect symptom.)
Avena fatua; 120 g.a.i/ha
  Inhibition Level Avena fatua: 2 (has certain effect on weed or crop growth, and has obvious drug effect.)
Bromus japonicus; 30 g.a.i/ha
  Inhibition Level Bromus japonicus: 0 (has no influence on the growth of weeds or crops and has no drug effect symptom.)
Bromus japonicus; 60 g.a.i/ha
  Inhibition Level Bromus japonicus: 0 (has no influence on the growth of weeds or crops and has no drug effect symptom.)
Bromus japonicus; 120 g.a.i/ha
  Inhibition Level Bromus japonicus: 0 (has no influence on the growth of weeds or crops and has no drug effect symptom.)
Digitaria sanguinalis [4]; 30 g.a.i/ha
  Inhibition Level Digitaria sanguinalis: 3 (weeds or crops are subject to severe growth inhibition.)
Digitaria sanguinalis [4]; 60 g.a.i/ha
  Inhibition Level Digitaria sanguinalis: 3 (weeds or crops are subject to severe growth inhibition.)
Digitaria sanguinalis [4]; 120 g.a.i/ha
  Inhibition Level Digitaria sanguinalis: 4 (weeds or crops die.)
Echinochloa crusgalli [5]; 30 g.a.i/ha
  Inhibition Level Echinochloa crusgalli: 3 (weeds or crops are subject to severe growth inhibition.)
Echinochloa crusgalli [5]; 60 g.a.i/ha
  Inhibition Level Echinochloa crusgalli: 3 (weeds or crops are subject to severe growth inhibition.)
Echinochloa crusgalli [5]; 120 g.a.i/ha
  Inhibition Level Echinochloa crusgalli: 4 (weeds or crops die.)
Setaria viridis [6]; 30 g.a.i/ha
  Inhibition Level Setaria viridis: 3 (weeds or crops are subject to severe growth inhibition.)
Setaria viridis [6]; 60 g.a.i/ha
  Inhibition Level Setaria viridis: 3 (weeds or crops are subject to severe growth inhibition.)
Setaria viridis [6]; 120 g.a.i/ha
  Inhibition Level Setaria viridis: 4 (weeds or crops die.)
[7]
  herbicidal activity on gramineous weeds in wheat fields: hardly shows herbicidal activity
